Some test systems named below: SK-MEL-2; SN12C; A549; SF-539; Malme-3M; NCI-H460; TK-10; CAKI-1; HCT-15; NCI-H522; COLO 205; NCI-H226; MDA-MB-231; OVCAR-4; UACC-62; SF-295; OVCAR-5; 786-0; SF-268; Hs-578T.
Common to all, as to assay: NCI-60 cell line screen, 48 h

Eight compounds from ChEMBL document CHEMBL1201862, “PubChem BioAssay data set” (2004) can be followed below.

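In this assay, cells in 96-well plates receive the compound at five concentrations for 48 hours. Endpoints are linearly interpolated between the surrounding concentrations. At the GI50, growth is halved.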 Active and inactive are the calls of the source. No stated cut-off is given here; in the data, active = GI50 up to about 1.1 µM and inactive = higher.

On to `CC(C)(C)OC(=O)C1CC[C@@H](CC(=O)Oc2ccc([N+](=O)[O-])cc2)N1` (stereo partly drawn), for which the GI50 with SK-MEL-2, in the experiment with SN12C, with A549, in the experiment on SF-539, in the experiment with Malme-3M and in the experiment on NCI-H460 was > 100 µM (inactive) each time. Besides, the GI50 in the experiment with TK-10 is > 100 µM (inactive); in the experiment on CAKI-1 it was > 100 µM (inactive); in the experiment with HCT-15 it was greater than 100 µM; in the experiment with NCI-H522, > 100 µM (inactive); with COLO 205, > 100 µM (inactive); in the experiment with NCI-H226 it was > 100 µM (inactive). Also, the GI50 with MDA-MB-231, with OVCAR-4, in the experiment with UACC-62, in the experiment with SF-295, in the experiment on OVCAR-5 and in the experiment with 786-0 was > 100 µM (inactive) throughout.
Turning to `COc1cccc(/C=N/NC(N)=O)c1O`, the GI50 with SK-MEL-2, with SN12C, with A549, with SF-539, in the experiment on Malme-3M and in the experiment on NCI-H460 was > 100 µM (inactive) throughout. The GI50 with TK-10 was > 100 µM (inactive); with CAKI-1, > 100 µM (inactive); in the experiment on SF-268, > 100 µM (inactive); in the experiment on HCT-15, greater than 100 µM; in the experiment on NCI-H522, > 100 µM (inactive); in the experiment on COLO 205 it was > 100 µM (inactive). Further, the GI50 in the experiment on NCI-H226, with OVCAR-4, in the experiment with UACC-62, with SF-295, with OVCAR-5 and in the experiment on 786-0 was > 100 µM (inactive) in each case.
In the case of `COc1ccc2c(c1)C(=O)Cc1ccccc1CC2`, the GI50 in the experiment with SK-MEL-2 was 81.5 µM (inactive); in the experiment on SN12C, > 100 µM (inactive); with A549 it was > 100 µM (inactive); with SF-539, > 100 µM (inactive); in the experiment with Malme-3M, > 100 µM (inactive); in the experiment with NCI-H460 it was > 100 µM (inactive). In addition, the GI50 is > 100 µM (inactive) in the experiment with TK-10; > 100 µM (inactive) with CAKI-1; > 100 µM (inactive) with SF-268; greater than 100 µM in the experiment on HCT-15; > 100 µM (inactive) with NCI-H522; > 100 µM (inactive) in the experiment on COLO 205. For the same compound, the GI50 in the experiment with NCI-H226 was > 100 µM (inactive); in the experiment with OVCAR-4, > 100 µM (inactive); with UACC-62 it was > 100 µM (inactive); in the experiment on SF-295, > 100 µM (inactive); in the experiment with OVCAR-5 it was > 100 µM (inactive); with 786-0, 72.3 µM (inactive).
In the case of `CC1=C(C)CC2(SC1)C(=O)c1ccccc1C2=O`, the GI50 in the experiment with SK-MEL-2, with SN12C, in the experiment with A549, in the experiment on SF-539, in the experiment on Malme-3M and with NCI-H460 was > 100 µM (inactive) each time. In addition, the GI50 in the experiment on TK-10 was > 100 µM (inactive); in the experiment on CAKI-1, 65.9 µM (inactive); in the experiment with SF-268 it was > 100 µM (inactive); with HCT-15, greater than 100 µM; in the experiment with NCI-H522, > 100 µM (inactive); with COLO 205 it was > 100 µM (inactive). Moreover, the GI50 in the experiment with NCI-H226, in the experiment with OVCAR-4, in the experiment on UACC-62, with SF-295, in the experiment on OVCAR-5 and in the experiment on 786-0 was > 100 µM (inactive) each time.
Regarding `CC(=O)n1c2c(c(=O)n1-c1ccccc1)[S+]([O-])CCC2` (stereo not drawn), the GI50 in the experiment on SK-MEL-2 was > 84.7 µM (inactive); in the experiment with SN12C, > 91.4 µM (inactive); in the experiment with A549 it was > 92.9 µM (inactive); in the experiment on SF-539, 20.4 µM (inactive); in the experiment on Malme-3M, > 56.4 µM (inactive); in the experiment on NCI-H460 it was 16.7 µM (inactive). Moreover, the GI50 with TK-10 was > 100 µM (inactive); in the experiment on CAKI-1, 55.5 µM (inactive); in the experiment with SF-268 it was > 100 µM (inactive); with HCT-15 it was 21.7 µM; in the experiment with NCI-H522, 5.65 µM (inactive); in the experiment with COLO 205, > 100 µM (inactive). Moreover, the GI50 in the experiment with NCI-H226 was > 100 µM (inactive); in the experiment with OVCAR-4, 0.705 µM (active); with UACC-62 it was 20.3 µM (inactive); in the experiment on OVCAR-5 it was > 100 µM (inactive); in the experiment on 786-0 it was 40.7 µM (inactive).
Turning to `O=C(O/N=C1/CCC/C1=C\c1ccccc1)c1ccc([N+](=O)[O-])cc1`, the GI50 in the experiment on SK-MEL-2 was > 100 µM (inactive); with SN12C, > 100 µM (inactive); in the experiment with A549, > 100 µM (inactive); with SF-539, 89.3 µM (inactive); in the experiment with Malme-3M it was > 100 µM (inactive); in the experiment on NCI-H460 it was > 100 µM (inactive). In addition, the GI50 in the experiment on TK-10 is > 100 µM (inactive); in the experiment on CAKI-1 it was > 100 µM (inactive); in the experiment on SF-268, 71.6 µM (inactive); in the experiment on HCT-15 it was greater than 100 µM; in the experiment on NCI-H522, > 100 µM (inactive); in the experiment on COLO 205 it was > 100 µM (inactive). The GI50 with NCI-H226, in the experiment on OVCAR-4, in the experiment with UACC-62, in the experiment with SF-295, in the experiment on OVCAR-5 and in the experiment with 786-0 was > 100 µM (inactive) in each case.
Take `c1ccc2c(c1)CC1COc3ccccc3C1O2` (stereo not drawn): the GI50 is 44.6 µM (inactive) in the experiment on SK-MEL-2; 67.5 µM (inactive) with SN12C; 50.1 µM (inactive) in the experiment on A549; > 100 µM (inactive) with SF-539; > 100 µM (inactive) in the experiment with Malme-3M; 95.5 µM (inactive) in the experiment with TK-10. Further, the GI50 in the experiment on CAKI-1 was 71.3 µM (inactive); with SF-268 it was > 100 µM (inactive); with HCT-15 it was 40.2 µM; in the experiment on NCI-H522, 57.4 µM (inactive); in the experiment with COLO 205, > 100 µM (inactive); in the experiment with NCI-H226, > 100 µM (inactive). For the same compound, the GI50 with MDA-MB-231 is 47.4 µM (inactive); with UACC-62, > 100 µM (inactive); with SF-295 it was 64.4 µM (inactive); in the experiment on OVCAR-5 it was > 100 µM (inactive); with 786-0, 50.7 µM (inactive).
In the case of `O=C(CSCC(=O)N/N=C\c1cc(Br)cc(Br)c1O)N/N=C\c1cc(Br)cc(Br)c1O`, the GI50 with SK-MEL-2 is 9.55 µM (inactive); in the experiment with SN12C, 27.8 µM (inactive); in the experiment on A549 it was 76.6 µM (inactive); in the experiment on SF-539, 20 µM (inactive); in the experiment with Malme-3M it was 14.4 µM (inactive); in the experiment with NCI-H460 it was 44.6 µM (inactive). Also, the GI50 is 15.6 µM (inactive) in the experiment with TK-10; 23.4 µM (inactive) with CAKI-1; 11.3 µM (inactive) with SF-268; 22.5 µM in the experiment on HCT-15; 11.7 µM (inactive) in the experiment on NCI-H522; 16.1 µM (inactive) in the experiment on Hs-578T. In addition, the GI50 in the experiment with COLO 205 is 33.7 µM (inactive); in the experiment on NCI-H226, 17.7 µM (inactive); with OVCAR-4, 14.4 µM (inactive); with UACC-62, 18 µM (inactive); with SF-295 it was 33.6 µM (inactive); with OVCAR-5 it was > 100 µM (inactive). Further, the GI50 in the experiment on 786-0 is 32.5 µM (inactive).
